The data set can be described thus: gradient 5% acetonitrile 3 min, to 50% in 2 min, to 85% in 15 min, held 3 min, 100 µL/min. As to conditions: column: Zorbax Extend-C18 2.1 x 50 mm; eluents: water / acetonitrile, 0.1% formic acid. An outline of the steps:
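A Zorbax Extend-C18 column (2.1 × 50 mm, 1.8 μm) run at 100 μL/min with water and acetonitrile, both containing 0.1% formic acid, separated mixtures of ~100 pure standards. The HPLC was coupled to a quadrupole time-of-flight mass spectrometer operated in positive and negative ionization mode, with dead and dwell volumes of 40 μL and 900 μL. Each retention time was taken from a computationally picked adduct peak that was then manually inspected.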
`COc1cc2c(cc1OC)C(C(=O)N(C)c1ccc(Cl)cc1)C(c1cccnc1)N(C)C2=O` (stereo not given) yielded an RP-LC retention time of 674 s.

As to `C/C(=N\Nc1nc2ccccc2s1)c1ccncn1`, the RP-LC retention time was 895 s.

For the molecule `Cc1nnc2n1CCN(C(=O)c1cc(-c3ccccc3)n[nH]1)C2`, the RP-LC retention time turned out to be 608 s.

With `CCc1ccc(-c2nc(-c3ccc4oc(C)nc4c3)no2)cc1`, the RP-LC retention time is 1280 s.

With `Cn1cnc2ccc(-c3noc(Cc4ccccc4Cl)n3)cc21`, the RP-LC retention time was found to be 738 s.

As to `Cc1cccc(NC(=O)CN2CCN(Cc3ccc(F)cc3)C(=O)C2=O)c1C`, the RP-LC retention time stood at 732 s.

Take `Cc1ccc(NC(=O)N2CCCC(Cn3cnc4cccnc43)C2)cc1` (stereo not given): the RP-LC retention time turned out to be 667 s.

Regarding `COc1ccccc1CNC(=O)C1=C2CCCN2c2ccc(F)cc2S1(=O)=O`, the RP-LC retention time was 882 s.

In the case of `Cn1c(SCc2ccc([N+](=O)[O-])cc2)nnc1-c1cccnc1`, the RP-LC retention time came out at 627 s.

Molecule `CCC(=O)N1CCc2cc(CNS(=O)(=O)c3ccc(OC)cc3)ccc21` came in with an RP-LC retention time of 812 s.

In turn, `CC(C)(OCc1nn(Cc2ccccc2)c2ccccc12)C(=O)O` yielded an RP-LC retention time of 937 s.

For `CC(C)CNC(=O)C1(CCO)CCN(c2ncccn2)C1` (stereo not given), the RP-LC retention time amounted to 584 s.

In the case of `CCCn1c(C)cnc1CC1CCN(S(=O)(=O)c2ccc3c(c2)CCC3)C1` (stereo not given), the RP-LC retention time worked out at 730 s.

`Fc1ccc(OCc2nnc3sc(Cc4ccc5c(c4)OCCO5)nn23)cc1` yielded an RP-LC retention time of 913 s.

The molecule `CN1CCN(S(=O)(=O)c2cccc(C#N)c2)CC1c1ccc(F)cc1` (stereo not given) showed an RP-LC retention time of 579 s.

`O=C(C1=CCN(Cc2cccc(F)c2)CC1)N1CCN(c2ccccc2F)CC1` returned an RP-LC retention time of 666 s.

In turn, `O=C(C1CCN(c2ccc(Cl)cc2)C1=O)N1CCN(c2ccccn2)CC1` (stereo not given) returned an RP-LC retention time of 634 s.

On to `Cn1cc(C(=O)NCCc2cccs2)c(S(=O)(=O)N2CCSCC2)n1`, for which the RP-LC retention time was found to be 842 s.

`CC(C)NC(=O)c1ccc(OCC2CCN(C(=O)c3ccc(F)cc3)CC2)cc1` had an RP-LC retention time of 826 s.

For `COC(=O)CC(NC(=O)N1CCCn2nc(-c3ccncc3)cc2C1)c1ccccc1` (stereo not given), the RP-LC retention time came out at 608 s.

In turn, `Cc1ccc(C)c(NC(=O)Cn2cnc3nc(N4CCCC(C(=O)NC5CC5)C4)sc3c2=O)c1` (stereo not given) had an RP-LC retention time of 683 s.

Regarding `COc1ccccc1NC(=O)Cn1nc2c(Oc3ccccc3C)nccn2c1=O`, the RP-LC retention time amounted to 839 s.

Molecule `Cc1cc2nc(C(F)(F)F)c(=O)n(C(C)C(=O)NCCN3CCOCC3)c2cc1C` (stereo not given) displayed an RP-LC retention time of 683 s.

`N#Cc1ccc(N2C=C(C(=O)N3CCCCC3)S(=O)(=O)c3ccc(F)cc32)cc1` yielded an RP-LC retention time of 824 s.

In the case of `Cc1ccc(CNC(=O)C2(C)CCCN(C(=O)Nc3ccccc3C(F)(F)F)C2)cc1` (stereo not given), the RP-LC retention time was 1010 s.

As to `COC(=O)C1=CN(c2ccccc2OC)c2cc(F)ccc2S1(=O)=O`, the RP-LC retention time was 860 s.

In turn, `CCCn1nnc2cc(-c3noc(CN4C(=O)COc5ccccc54)n3)ccc21` gave an RP-LC retention time of 926 s.

In turn, `COc1ccc(Cl)cc1S(=O)(=O)NCCc1cn(CC(C)C)c2ncccc12` had an RP-LC retention time of 987 s.

For the molecule `CCSc1nnc(-c2nn(C)c3c2CN(C(=O)c2ccc(C)cc2)CC3)n1C`, the RP-LC retention time amounted to 770 s.

With `CCc1noc(-c2ccc(SCC(=O)N3CCCCC3C)nc2)n1` (stereo not given), the RP-LC retention time was determined as 1200 s.

In turn, `Cc1cc(C(=O)Nc2nnc(-c3ccn(C(C)C)n3)o2)no1` showed an RP-LC retention time of 620 s.

Consider `Cc1ccc(Nc2c(-c3ccc(Cl)cc3)nc3ccc(C)cn23)cc1`, for which the RP-LC retention time came to 836 s.

On to `O=C(NC1CCCCC1)c1nc(-c2cn(-c3ccc(Cl)cc3)nn2)no1`, for which the RP-LC retention time was determined as 1030 s.

In turn, `Cc1ccc(NC(=O)c2cnn3c2CCCC3)cc1` displayed an RP-LC retention time of 770 s.

As to `Cc1ccc(N2CCN(CC(O)COc3cccc(C)c3)CC2)cc1` (stereo not given), the RP-LC retention time amounted to 782 s.

In turn, `COc1cc(OC)cc(C(=O)NCC(=O)Nc2nc3ccccc3[nH]2)c1` returned an RP-LC retention time of 635 s.

`CN1C(=O)C2(CCN(C(=O)Nc3ccc4c(c3)OCO4)C2)c2ccccc21` (stereo not given) came in with an RP-LC retention time of 752 s.

`CCOC(=O)CCC(=O)Nc1cc(C)nn1-c1nc(-c2ccc(F)cc2)cs1`: the RP-LC retention time was found to be 1100 s.

Take `CCCNC(=O)C1CCN(c2nc3ccc(-c4ccsc4)nc3s2)CC1`: the RP-LC retention time was found to be 851 s.

Consider `O=C(CN1CCc2ccccc2C1C(=O)N1CCCCC1)NCc1cccc(Cl)c1` (stereo not given), for which the RP-LC retention time turned out to be 913 s.

As for `NC(=O)Cc1ccc2c(c1)[nH]c1ccccc12`, the RP-LC retention time came out at 756 s.

Consider `Cc1ccc2c(c1)N(S(C)(=O)=O)CCC(C(=O)NCCC1=CCCCC1)O2` (stereo not given), for which the RP-LC retention time was determined as 993 s.

In the case of `Cc1ccc(NC(=O)Cn2cnc3c(sc4nc(-c5ccccc5)ccc43)c2=O)c(C)c1`, the RP-LC retention time was 1060 s.

The molecule `Cc1noc(-c2ccnc(-n3cnc(C(=O)NC4CCCCC4)c3)c2)n1` gave an RP-LC retention time of 776 s.

For `COc1ccccc1Nc1c(-c2ccc(C)cc2)nc2cnccn12`, the RP-LC retention time came to 954 s.

On to `Cn1cc(-c2nc(C(=O)NC3CCCCCC3)cs2)c2cccnc21`, for which the RP-LC retention time stood at 1040 s.

On to `Cc1ccsc1C(=O)N1CC(Oc2cccc(-c3nc(-c4ccccc4)no3)c2)C1`, for which the RP-LC retention time came out at 1280 s.

On to `CC(=O)c1cccc(NC(=O)Cn2c(=O)n(-c3ccc(C)cc3)c(=O)c3c2cc(C)n3C)c1`, for which the RP-LC retention time worked out at 819 s.

For the molecule `O=C(NC1CCCCC1)C1CC(=O)N(CCc2c[nH]c3ccc(Cl)cc23)C1` (stereo not given), the RP-LC retention time is 817 s.

In the case of `Cc1ccn2cc(-c3ccc(NC(=O)c4ccc(C(F)(F)F)cc4)cc3)nc2n1`, the RP-LC retention time was determined as 739 s.

`CCn1ccc(C(=O)NC)n1` showed an RP-LC retention time of 566 s.

For `Cc1ccc(-c2nc3cnc(Br)cn3c2Nc2ccc3c(c2)OCO3)cc1`, the RP-LC retention time was determined as 982 s.

Turning to `CC(=O)Nc1ccc(-c2nc3ccc(C)cc3s2)cc1`, the RP-LC retention time was determined as 851 s.

Molecule `CN(C)CCNC(=O)c1nc(N2CCSCC2)c2cnn(C)c2n1` came in with an RP-LC retention time of 560 s.

For the molecule `COc1ccc(-c2nnc(COc3ccc(NC(=O)C4CCC4)cc3)o2)cc1`, the RP-LC retention time worked out at 826 s.

The molecule `Fc1cccc(-c2noc(-c3cc(N4CCN(c5ccccn5)CC4)nc4ccccc34)n2)c1` had an RP-LC retention time of 962 s.

With `Cc1ccn2c(NC(=O)c3cccc([N+](=O)[O-])c3C)c(-c3ccccc3)nc2c1`, the RP-LC retention time turned out to be 677 s.

Molecule `CCCNC(=O)c1cn(-c2cc(-c3nc(C(C)(C)C)no3)ccn2)cn1` displayed an RP-LC retention time of 934 s.

For `Cc1ccn2c(NC(=O)c3ccc(C)c(C)c3)c(-c3ccccc3)nc2c1`, the RP-LC retention time came out at 709 s.

As to `CC(=O)c1ccc(NC(=O)c2cccc(N3C(=O)NC4CC3(C)Oc3ccccc34)c2)cc1` (stereo not given), the RP-LC retention time is 815 s.

`OC[C@@H]1CN(Cc2cn[nH]c2-c2ccc(F)cc2)C[C@H]1c1ccccn1` showed an RP-LC retention time of 586 s.

For `O=C(c1ccc([N+](=O)[O-])cc1)N(Cc1ccccc1)Cc1ccco1`, the RP-LC retention time was 935 s.

`O=C(Cn1c(=O)c(CCC(=O)NC2CCCC2)nc2ccccc21)Nc1ccc(F)c(F)c1` displayed an RP-LC retention time of 825 s.

Regarding `Cc1cccc(CNC(=O)c2cc3c(-c4cccs4)nn(-c4ccccc4)c3n2C)c1`, the RP-LC retention time was found to be 1200 s.

The molecule `CCOC(=O)c1c(C)[nH]c(CCC(=O)NCCN(C)C)c1C` returned an RP-LC retention time of 591 s.

Regarding `COc1ccccc1C(=O)N1CCC(c2cc3n(n2)CCCNC3=O)CC1`, the RP-LC retention time was 596 s.

In the case of `CCOC(=O)N1CCC(NC(=O)Cc2csc(Nc3cccc(Cl)c3)n2)CC1`, the RP-LC retention time worked out at 771 s.

`COC(=O)c1ccc2c(=O)n(Cc3ccc(F)cc3)c(N3CCN(c4ccccn4)CC3)nc2c1` came in with an RP-LC retention time of 772 s.

For the molecule `COc1cccc(-n2c(=O)c(C(=O)Nc3ccc(F)cc3Cl)c(O)c3cccnc32)c1`, the RP-LC retention time is 1290 s.

The molecule `COc1cc(NC(=O)Cn2nc(N(C)C)c3ccccc3c2=O)cc(OC)c1` displayed an RP-LC retention time of 836 s.

For `CCOC(=O)c1noc2ncnc(N3CCc4ccccc43)c12`, the RP-LC retention time is 948 s.

The molecule `CCCCN(CC)C(=O)C1CCCN(c2nc3cccnc3s2)C1` (stereo not given) came in with an RP-LC retention time of 914 s.

Take `CCOC(=O)c1noc2nc(C)nc(N3CCN(c4ccc(Cl)cc4)CC3)c12`: the RP-LC retention time worked out at 1190 s.

`CC(C)(C)NC(=O)N1[C@H]2CC[C@@H]1c1cnc(-c3ccccc3)nc1C2` had an RP-LC retention time of 865 s.

Consider `COc1ccc(NC(=O)c2ccc(C(=N)N(C)C)cc2)c(C(=O)Nc2ccc(Cl)cn2)c1`, for which the RP-LC retention time amounted to 725 s.

For `Cc1nc(-c2ccc(N3CCN(C(=O)c4cccc(Cl)c4)CC3)nc2)sc1C`, the RP-LC retention time amounted to 957 s.

For the molecule `Cn1nc(-c2ccc(NC(=O)c3ccc([N+](=O)[O-])cc3Cl)cc2)ccc1=O`, the RP-LC retention time came out at 714 s.

`CCCCC(=O)Nc1ncn[nH]1` displayed an RP-LC retention time of 568 s.

On to `O=C(NC1CCCCC1)C1CCCN(c2ccc3cc(S(=O)(=O)N4CCCCC4)ccc3n2)C1` (stereo not given), for which the RP-LC retention time worked out at 832 s.

On to `CCc1ccccc1NC(=O)c1cc(C)n2nccc2n1`, for which the RP-LC retention time is 1030 s.

The values above are taken from the METLIN SMRT retention time set (Domingo-Almenara et al. 2019).
